Data from patent US6579859B1 (priority 2002, dated 2003).
Values joined by “and” are separate entries in the source; they are usually repeats but may differ in a detail not shown here. Identical values can stand only once.

Legend:
Assay type in all cases: cell-based
Acanthamoeba (Cyst) = test: Acanthamoeba cyst toxicity test (minimal lethal concentration); conditions: 24 hours exposure at 30° C.; no trophozoites after 6 days; replicate tests
Protocol: E. coli (ATCC#25922) were grown in Difaco Bacto nutrient agar and killed via UV light for use as nutrient for the Acanthamoeba cysts. The killed E. coli were placed on a non-nutrient agar plate. 1-2 drops of washed Acanthamoeba (from Tennessee Technological University) from a 2-3 day old plate were placed on the plate and incubated for 2-3 days at 30° C. A biofilm was prepared by placing approximately 9 milliliters of the active E. coli culture in sterile coplin jars containing 4 cover slips and incubating over night. The cover slips were rinsed in Osterhout-tris buffer and placed on 2-3 day old Acanthamoeba trophozoite plates and incubated for 7 days. In 7 days, the trophozoites will exhaust the E. coli nutrients and form cysts. The cover slips were soaked in approximately 9 milliliters of Osterhout-tris buffer and the cover slips placed in coplin jars. 50 ppm dilutions of the biocides to be tested were added to the coplin jars containing the cover slips with cysts and the coplin jars were incubated at 30° C. for 24 hours.
After 24 hours, the test solutions were removed and the cover slips soaked in Osterhout-tris buffer for 30 minutes. The cover slips were placed on non-nutrient agar plates with live E. coli. The plates were observed using an inverted microscope every day for 6 days to see if trophozoites were present. If trophozoites appeared, the test was positive. […]

[1] = system: Tetrahymena (Trophozoite); test: Tetrahymena toxicity test (minimal lethal concentration); conditions: lowest concentration at which all Tetrahymena were dead in all replicate wells; replicate tests
Protocol: Tetrahymena cells from a commercial source were grown in PCB broth in a tissue culture flask. The cells were removed from the broth via centrifuge and suspended in Osterhout-tris buffer at a concentration of no greater than 60 cells per 10 micro liters. A standard 96 well test plate comprising successive 50% dilutions of this cellular solution per row was prepared. Chemicals to be tested were added to 3 adjacent wells. Organism viability was tested via observation through an inverted microscope at time zero and every 24 hours thereafter. Tetrahymena were judged viable if they were motile or had active contractile vacuoles. All organisms in a well had to be dead to have a negative reading. A positive reading indicated all or some viable orgasms in a well. The minimal lethal concentration (MLC) of the test materials to Tetrahymena was the lowest toxicant concentration in which all Tetrahymena were dead in all replicate wells.

Acanthamoeba Trophozoite = test: Acanthamoeba trophozoite toxicity test (minimal lethal concentration); conditions: 24 hours at 30°; all organisms dead in all replicate wells; replicate tests
Protocol: E. coli (ATCC #25922) grown in Difco Bacto nutrient agar and killed via UV light were used as nutrient for the Acanthamoeba. The killed E. coli were placed on a non-nutrient agar plate. 1-2 drops of washed Acanthamoeba Trophozoite (from Tennessee Technological University) were placed on the plate and incubated for 2-3 days at 30° C. An inoculum was prepared by placing about 2 ml of Osterhout-tris buffer onto the 2-3 day old plates. A sterile loop was used to dislodge the Trophozoites from the agar surface. The liquid was transferred to a sterile tube and diluted 1:10. 10 micro liters were placed on a slide and counted to confirm about 90 Acanthamoeba per 10 micro liters for the test. This solution was placed in a standard 96 well test plate with successive 50% dilutions per row. A 400 ppm solution of toxicants in Osterhout-tris buffer was prepared. Toxicants were added to 3 adjacent wells for testing. To avoid cross contamination, a well was skipped between each 3 replicate wells in every row and every other row skipped on the plate. The plate was incubated at 30° for 24 hours. An inverted microscope was used to observe the organisms in the wells. Cytoplasm will move in live amoeba and/or the contractile vacuoles will remain active. All organisms had to be dead in a well to have a negative reading. […]

SMILES	Minimal Lethal Concentration, Acanthamoeba (Cyst) (Acanthamoeba (Cyst))	Minimal Lethal Concentration, Tetrahymena (Trophozoite) [1] [µg/mL]	Minimal Lethal Concentration, Acanthanoeba (Trophozoite) (Acanthamoeba Trophozoite) [µg/mL]
CCCCCCCCCCCCCC[P+](CCCC)(CCCC)CCCC.[Cl-] [TBTDPC, Tri-n-butyl-tetradecylphosphonium chloride]	25 μg/ml (4×) and 40 μg/ml	2.5	2.5
OC[P+](CO)(CO)CO.[Cl-] [THPS, Tetra kis hydroxymethyl phosphonium chloride, reference compound]	>50 µg/mL	28	56
